Test results: the supplement of paper PMC10307832

Tests used:
Assay in all cases: relative viability (nuclei count vs DMSO), 5 days (fraction); higher = more cells survive
[1] = test system: NCI-H647
In short: (§1)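 Cells from lung cancer lines were seeded into 1536-well plates and, one day later, dosed by pin tool. Treatments were either a single drug or a fixed dose of an anchor drug with five library-drug doses (not always all listed) in √10 steps. After 5 days, nuclei were stained in a one-step fixation (final 0.05% Triton X-100, 1% formaldehyde, 1 ug/ml Hoechst) and counted on 4× images, and relative viability is the treated-to-vehicle nuclei ratio, as the median of duplicate plates.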

[2] = test system: NCI-H358
In short: as §1

[3] = test system: NCI-H1792
In short: as §1

[4] = test system: ABC-1
In short: as §1

[5] = test system: NCI-H1975
In short: as §1

[6] = test system: NCI-H1651
In short: as §1

[7] = test system: HCC-15
In short: as §1

[8] = test system: COR-L 105
In short: as §1

[9] = test system: NCI-H2087
In short: as §1

[10] = test system: NCI-H661
In short: as §1

[11] = test system: UMC-11
In short: as §1

[12] = test system: LCLC-103H
In short: as §1

[13] = test system: 201T
In short: as §1

[14] = test system: COR-L23
In short: as §1

[15] = test system: HCC-827
In short: as §1

[16] = test system: EKVX
In short: as §1

[17] = test system: EPLC-272H
In short: as §1

[18] = test system: HCC-44
In short: as §1

[19] = test system: NCI-H1650
In short: as §1

[20] = test system: NCI-H727
In short: as §1

[21] = test system: NCI-H520
In short: as §1

[22] = test system: H3255
In short: as §1

[23] = test system: NCI-H1437
In short: as §1

SMILES: O=C(O)CCCCC(CCSCc1ccccc1)SCc1ccccc1 (configuration not stated) [CPI-613] + N=C(N)NC(=N)NCCc1ccccc1 [Phenformin] (partner 250 µM)
- relative viability ([1]; first compound 5 µM): 0.575
- relative viability ([1]; first compound 15.81 µM): 0.408
- relative viability ([1]; first compound 50 µM): 0.501
- relative viability ([1]; first compound 158.11 µM): 0.108
- relative viability ([1]; first compound 500 µM): 0.0098
- relative viability ([2]; first compound 15.81 µM): 0.297
- relative viability ([2]; first compound 50 µM): 0.31
- relative viability ([2]; first compound 158.11 µM): 0.172
- relative viability ([2]; first compound 500 µM): 0.017
- relative viability ([3]; first compound 5 µM): 0.332
- relative viability ([3]; first compound 50 µM): 0.236
- relative viability ([3]; first compound 158.11 µM): 0.205
- relative viability ([3]; first compound 500 µM): 0.0809
- relative viability ([4]; first compound 5 µM): 0.22
- relative viability ([4]; first compound 15.81 µM): 0.211
- relative viability ([4]; first compound 50 µM): 0.247
- relative viability ([4]; first compound 158.11 µM): 0.146
- relative viability ([4]; first compound 500 µM): 0.192
- relative viability ([5]; first compound 5 µM): 0.397
- relative viability ([5]; first compound 15.81 µM): 0.404
- relative viability ([5]; first compound 50 µM): 0.388
- relative viability ([5]; first compound 158.11 µM): 0.291
- relative viability ([5]; first compound 500 µM): 0.0692
- relative viability ([6]; first compound 5 µM): 0.326
- relative viability ([6]; first compound 15.81 µM): 0.316
- relative viability ([6]; first compound 50 µM): 0.303
- relative viability ([6]; first compound 158.11 µM): 0.166
- relative viability ([6]; first compound 500 µM): 0.126
- relative viability ([7]; first compound 5 µM): 0.435
- relative viability ([7]; first compound 15.81 µM): 0.439
- relative viability ([7]; first compound 50 µM): 0.414
- relative viability ([7]; first compound 158.11 µM): 0.178
- relative viability ([7]; first compound 500 µM): 0.0244
- relative viability ([8]; first compound 5 µM): 0.428
- relative viability ([8]; first compound 15.81 µM): 0.405
- relative viability ([8]; first compound 50 µM): 0.443
- relative viability ([8]; first compound 158.11 µM): 0.279
- relative viability ([8]; first compound 500 µM): 0.112
- relative viability ([9]; first compound 5 µM): 0.387
- relative viability ([9]; first compound 15.81 µM): 0.438
- relative viability ([9]; first compound 50 µM): 0.379
- relative viability ([9]; first compound 158.11 µM): 0.129
- relative viability ([9]; first compound 500 µM): 0.0066
- relative viability ([10]; first compound 5 µM): 0.291
- relative viability ([10]; first compound 15.81 µM): 0.235
- relative viability ([10]; first compound 50 µM): 0.304
- relative viability ([10]; first compound 158.11 µM): 0.214
- relative viability ([10]; first compound 500 µM): 0.113
- relative viability ([11]; first compound 5 µM): 0.274
- relative viability ([11]; first compound 15.81 µM): 0.297
- relative viability ([11]; first compound 50 µM): 0.289
- relative viability ([11]; first compound 158.11 µM): 0.124
- relative viability ([11]; first compound 500 µM): 0.117
- relative viability ([12]; first compound 5 µM): 0.322
- relative viability ([12]; first compound 15.81 µM): 0.297
- relative viability ([12]; first compound 50 µM): 0.377
- relative viability ([12]; first compound 158.11 µM): 0.294
- relative viability ([12]; first compound 500 µM): 0.278
- relative viability ([13]; first compound 5 µM): 0.514
- relative viability ([13]; first compound 15.81 µM): 0.432
- relative viability ([13]; first compound 50 µM): 0.415
- relative viability ([13]; first compound 158.11 µM): 0.36
- relative viability ([13]; first compound 500 µM): 0.0726
- relative viability ([14]; first compound 5 µM): 0.438
- relative viability ([14]; first compound 15.81 µM): 0.393
- relative viability ([14]; first compound 50 µM): 0.475
- relative viability ([14]; first compound 158.11 µM): 0.199
- relative viability ([14]; first compound 500 µM): 0.0157
- relative viability ([15]; first compound 5 µM): 0.361
- relative viability ([15]; first compound 15.81 µM): 0.374
- relative viability ([15]; first compound 50 µM): 0.41
- relative viability ([15]; first compound 158.11 µM): 0.318
- relative viability ([15]; first compound 500 µM): 0.185
- relative viability ([16]; first compound 5 µM): 0.247
- relative viability ([16]; first compound 15.81 µM): 0.223
- relative viability ([16]; first compound 50 µM): 0.212
- relative viability ([16]; first compound 158.11 µM): 0.164
- relative viability ([16]; first compound 500 µM): 0.213
- relative viability ([17]; first compound 5 µM): 0.286
- relative viability ([17]; first compound 15.81 µM): 0.26
- relative viability ([17]; first compound 50 µM): 0.309
- relative viability ([17]; first compound 158.11 µM): 0.279
- relative viability ([17]; first compound 500 µM): 0.0144
- relative viability ([18]; first compound 5 µM): 0.15
- relative viability ([18]; first compound 15.81 µM): 0.195
- relative viability ([18]; first compound 50 µM): 0.185
- relative viability ([18]; first compound 158.11 µM): 0.268
- relative viability ([18]; first compound 500 µM): 0.248
- relative viability ([19]; first compound 5 µM): 0.403
- relative viability ([19]; first compound 15.81 µM): 0.408
- relative viability ([19]; first compound 50 µM): 0.366
- relative viability ([19]; first compound 158.11 µM): 0.136
- relative viability ([19]; first compound 500 µM): 0.0086
- relative viability ([20]; first compound 5 µM): 0.548
- relative viability ([20]; first compound 15.81 µM): 0.693
- relative viability ([20]; first compound 50 µM): 0.62
- relative viability ([20]; first compound 158.11 µM): 0.353
- relative viability ([20]; first compound 500 µM): 0.0983
- relative viability ([21]; first compound 5 µM): 0.667
- relative viability ([21]; first compound 15.81 µM): 0.433
- relative viability ([21]; first compound 50 µM): 0.634
- relative viability ([21]; first compound 158.11 µM): 0.446
- relative viability ([21]; first compound 500 µM): 0.35
- relative viability ([22]; first compound 5 µM): 0.351
- relative viability ([22]; first compound 15.81 µM): 0.299
- relative viability ([22]; first compound 50 µM): 0.399
- relative viability ([22]; first compound 500 µM): 0.299
- relative viability ([23]; first compound 5 µM): 0.237
- relative viability ([23]; first compound 15.81 µM): 0.282
- relative viability ([23]; first compound 50 µM): 0.287
- relative viability ([23]; first compound 158.11 µM): 0.119
- relative viability ([23]; first compound 500 µM): 0.0327
